In article PMC7381729, “A new class of PentixaFor- and PentixaTher-based theranostic agents with enhanced CXCR4-targeting efficiency” (Theranostics, 2020):
Read-outs that look alike come from different tables or passages of the source. Where a SMILES comes first, the peptide text is derived from it. Side-chain parts run from the residue outwards. [ ]: non-standard residue; d: D form. The star is where a group is joined. DOTA = O=C(O)CN1CCN(CC(=O)O)CCN(CC(=O)*)CCN(CC(=O)O)CC1; dTyr(3-I) = N[C@H](Cc1ccc(O)c(I)c1)C(=O)O; 2Nal = N[C@@H](Cc1ccc2ccccc2c1)C(=O)O; dNMeOrn = CN[C@H](CCCN)C(=O)O; 4Abz = Nc1ccc(C(=O)O)cc1

Assay: Biodistribution in Daudi xenograft bearing mice
Assay type: in vivo, mouse
Conditions: female, CB-17 SCID, mouse, iv, total radioactivity, means ± SD; for tissue uptake at 6 h: 6h p.i.; for tissue uptake at 48 h / tissue to tissue ratio at 48 h: 48h p.i.; for tissue to tissue ratio at 48 h: n=4-5 animals
Method: The biodistribution of selected compounds was investigated in Daudi (human B-cell lymphoma) xenograft bearing female CB-17 SCID mice (6-8 weeks, Charles River, Sulzfeld, Germany), [29]. All animal experiments were performed in accordance with current animal welfare regulations in Germany (approval #55.2-1-54-2532-71-13).
Animals (n=4-5 per group) were injected intravenously with 5-10 MBq (0.08-0.11 nmol peptide per mouse) of the respective ^68Ga- and^ 177Lu-labeled CXCR4 ligands in PBS (100 µL) into the tail vein under isoflurane anesthesia. CXCR4-specificity of binding was determined by coinjection of 50 µg AMD3100 per mouse. The animals were sacrificed 1, 6 and 48h post injection (p.i.), and the organs of interest were dissected. The radioactivity was measured in weighted tissue samples using a γ-counter. Data are expressed in % ID/g tissue (mean ± SD).

[1] = adrenals, i.v., n=4-5, read-out: Biodistribution adrenals
[2] = blood, i.v., n=4-5, read-out: Biodistribution blood
[3] = colon, i.v., n=4-5, read-out: Biodistribution colon
[4] = femur, i.v., n=4-5, read-out: Biodistribution femur
[5] = heart, i.v., n=4-5, read-out: Biodistribution heart
[6] = kidney, i.v., n=4-5, read-out: Biodistribution kidney
[7] = liver, i.v., n=4-5, read-out: Biodistribution liver
[8] = lung, i.v., n=4-5, read-out: Biodistribution lung
[9] = muscle, i.v., n=4-5, read-out: Biodistribution muscle
[10] = pancreas, i.v., n=4-5, read-out: Biodistribution pancreas
[11] = small intestine, i.v., n=4-5, read-out: Biodistribution small intestine
[12] = spleen, i.v., n=4-5, read-out: Biodistribution spleen
[13] = stomach, i.v., n=4-5, read-out: Biodistribution stomach
[14] = tumor (Daudi xenograft), i.v., n=4-5, read-out: Biodistribution tumor (Daudi xenograft)

C[C@@H](NC(=O)[C@@H](CCCNC(=N)N)NC(=O)CN1CCN(CC(=O)O)CCN(CC(=O)O)CCN(CC(=O)O)CC1)C(=O)Nc1ccc(C(=O)NCCC[C@@H]2C(=O)N[C@@H](CCCNC(=N)N)C(=O)N[C@@H](Cc3ccc4ccccc4c3)C(=O)NCC(=O)N[C@H](Cc3ccc(O)c(I)c3)C(=O)N2C)cc1 [[^177Lu]DOTA-r-a-ABA-iodoCPCR4, metal not drawn] (cyclo([2Nal]G[dTyr(3-I)][dNMeOrn]([4Abz-dA-dR-DOTA])R))
tissue uptake at 6 h [1]: 0.68 ± 0.21 %ID/g
tissue uptake at 48 h [1]: 0.6 ± 0.12 %ID/g
tissue uptake at 6 h [2]: 0.17 ± 0.09 %ID/g
tissue uptake at 48 h [2]: 0.03 ± 0.01 %ID/g
tissue uptake at 1 h (brain, 1h p.i., tracer only, i.v., γ-counter, n=4-5, read-out: Biodistribution brain): 0.08 ± 0.01 %ID/g
tissue uptake at 6 h [3]: 0.49 ± 0.2 %ID/g
tissue uptake at 48 h [3]: 0.43 ± 0.3 %ID/g
tissue uptake at 6 h [4]: 0.56 ± 0.23 %ID/g
tissue uptake at 48 h [4]: 0.34 ± 0.08 %ID/g
tissue uptake at 6 h [5]: 0.28 ± 0.05 %ID/g
tissue uptake at 48 h [5]: 0.19 ± 0.02 %ID/g
tissue uptake at 6 h [6]: 3.2 ± 0.45 %ID/g
tissue uptake at 48 h [6]: 2.58 ± 0.69 %ID/g
tissue uptake at 6 h [7]: 17.1 ± 3.09 %ID/g
tissue uptake at 48 h [7]: 14.6 ± 2 %ID/g
tissue uptake at 6 h [8]: 1.07 ± 0.26 %ID/g
tissue uptake at 48 h [8]: 0.57 ± 0.04 %ID/g
tissue uptake at 6 h [9]: 0.06 ± 0.01 %ID/g
tissue uptake at 48 h [9]: 0.04 %ID/g
tissue uptake at 6 h [10]: 0.11 ± 0.02 %ID/g
tissue uptake at 48 h [10]: 0.09 ± 0.01 %ID/g
tissue uptake at 6 h [11]: 0.24 ± 0.06 %ID/g
tissue uptake at 48 h [11]: 0.16 ± 0.06 %ID/g
tissue uptake at 6 h [12]: 2.95 ± 0.75 %ID/g
tissue uptake at 48 h [12]: 2.72 ± 0.5 %ID/g
tissue uptake at 6 h [13]: 0.25 ± 0.09 %ID/g
tissue uptake at 48 h [13]: 0.14 ± 0.02 %ID/g
tissue uptake at 6 h [14]: 12.5 ± 2.56 %ID/g
tissue uptake at 48 h [14]: 8.11 ± 0.96 %ID/g
tissue to tissue ratio at 48 h (tumor / blood, read-out: Tumor/organ ratio t/blood): 320 ± 104
tissue to tissue ratio at 48 h (tumor / colon, read-out: Tumor/organ ratio t/colon): 19 ± 13
tissue to tissue ratio at 48 h (tumor / heart, read-out: Tumor/organ ratio t/heart): 42 ± 7
tissue to tissue ratio at 48 h (tumor / kidney, read-out: Tumor/organ ratio t/kidney): 3.1 ± 0.9
tissue to tissue ratio at 48 h (tumor / liver, read-out: Tumor/organ ratio t/liver): 0.6 ± 0.1
tissue to tissue ratio at 48 h (tumor / lung, read-out: Tumor/organ ratio t/lung): 14 ± 2
tissue to tissue ratio at 48 h (tumor / muscle, read-out: Tumor/organ ratio t/muscle): 226 ± 36
tissue to tissue ratio at 48 h (tumor / small intestine, read-out: Tumor/organ ratio t/small intestine): 50 ± 20
tissue to tissue ratio at 48 h (tumor / spleen, read-out: Tumor/organ ratio t/spleen): 3 ± 0.7
tissue to tissue ratio at 48 h (tumor / stomach, read-out: Tumor/organ ratio t/stomach): 58 ± 12
